The structures appear in SMILES notation. Calls of active or inactive are those of the source. The rule behind the calls is not given here.

The results in this text go back to ChEMBL document CHEMBL5505990, “Novel aroyl guanidine anti-trypanosomal compounds that exert opposing effects on parasite energy metabolism” (Eur J Med Chem, 2024).

Data set [1] concerns Trypanosoma brucei brucei. Nature of the data set: Induction of glycolysis in bloodstream Trypanosoma brucei brucei 427 assessed as increase in glycerol level at 1 uM incubated for 5 hrs. In kind it is functional.
The subject of data set [2] is Trypanosoma brucei brucei. Nature of the data set: Disruption of nucleotide metabolism in bloodstream Trypanosoma brucei brucei 427 assessed as accumulation of NMP at 1 uM incubated for 5 hrs. The data set is classed as functional, organism-based.
The subject of data set [3] is Trypanosoma brucei brucei. Nature of the data set: Disruption of nucleotide metabolism in bloodstream Trypanosoma brucei brucei 427 assessed as depletion of NTP at 1 uM incubated for 5 hrs. The data set is classed as functional, organism-based.
For data set [4], the system named is Trypanosoma brucei brucei. Nature of the data set: Induction of glycolysis in bloodstream Trypanosoma brucei brucei 427 assessed as increase in pyruvate level at 1 uM incubated for 5 hrs. The data set is classed as functional.
The subject of data set [5] is Trypanosoma brucei brucei. The data set is described as follows: Disruption of nucleotide metabolism in bloodstream Trypanosoma brucei brucei 427 assessed as accumulation of purine/pyrimidine base forms at 1 uM incubated for 5 hrs. In kind it is functional, organism-based.
In data set [6] the test system is Trypanosoma brucei brucei. Nature of the data set: Effect on stearoyl-CoA level in bloodstream Trypanosoma brucei brucei 427 assessed as increase in pyruvate level at 1 uM incubated for 5 hrs. In kind it is functional.
In data set [7] the test system is Trypanosoma brucei brucei. The data set is described as follows: Disruption of nucleotide metabolism in bloodstream Trypanosoma brucei brucei 427 assessed as accumulation of NDP at 1 uM incubated for 5 hrs. The data set is classed as functional, organism-based.
For data set [8], the system named is Trypanosoma brucei brucei. The data set is described as follows: Downregulation of 6-phosphogluconate level in bloodstream Trypanosoma brucei brucei 427 assessed as increase in pyruvate level at 1 uM incubated for 5 hrs. In kind it is functional.
The subject of data set [9] is Trypanosoma brucei brucei. Nature of the data set: Effect on acetyl-carnitine level in bloodstream Trypanosoma brucei brucei 427 assessed as increase in pyruvate level at 1 uM incubated for 5 hrs. The data set is classed as functional.
Data set [10] relates to Trypanosoma brucei brucei. The data set is described as follows: Anti-trypanosomal activity against Trypanosoma brucei brucei at 10 uM relative to control. The data set is classed as functional.
Data set [11] concerns Trypanosoma brucei brucei. The data set is described as follows: Effect on palmitoyl-CoA level in bloodstream Trypanosoma brucei brucei 427 assessed as increase in pyruvate level at 1 uM incubated for 5 hrs. The data set is classed as functional.
Data set [12] relates to Trypanosoma brucei brucei. Nature of the data set: Disruption of nucleotide metabolism in bloodstream Trypanosoma brucei brucei 427 assessed as accumulation of nucleosides at 1 uM incubated for 5 hrs. The data set is classed as functional, organism-based.
In data set [13] the test system is Trypanosoma brucei brucei. Nature of the data set: Downregulation of NADPH level in bloodstream Trypanosoma brucei brucei 427 assessed as increase in pyruvate level at 1 uM incubated for 5 hrs. The data set is classed as functional.
Data set [14] concerns Trypanosoma brucei brucei. Nature of the data set: Effect on free CoA level in bloodstream Trypanosoma brucei brucei 427 assessed as increase in pyruvate level at 1 uM incubated for 5 hrs. In kind it is functional.
The test system of data set [15] is Trypanosoma brucei brucei. The data set is described as follows: Effect on free carnitine level in bloodstream Trypanosoma brucei brucei 427 assessed as increase in pyruvate level at 1 uM incubated for 5 hrs. In kind it is functional.
Data set [16] deals with Trypanosoma brucei brucei. Nature of the data set: Upregulation of glycolytic flux in bloodstream Trypanosoma brucei brucei 427 assessed as increase in pyruvate level at 1 uM incubated for 5 hrs. The data set is classed as functional.
Data set [17] deals with Trypanosoma brucei brucei. The data set is described as follows: Induction of glycolysis in bloodstream Trypanosoma brucei brucei 427 assessed as increase in succinate level at 1 uM incubated for 5 hrs. The data set is classed as functional.
In data set [18] the test system is Trypanosoma brucei brucei. The data set is described as follows: Upregulation of carnitine to acetyl-carnitine ratio in bloodstream Trypanosoma brucei brucei 427 assessed as increase in pyruvate level at 1 uM incubated for 5 hrs. The data set is classed as functional.
Data set [19] concerns Trypanosoma brucei brucei. The data set is described as follows: Effect on acetyl-CoA level in bloodstream Trypanosoma brucei brucei 427 assessed as increase in pyruvate level at 1 uM incubated for 5 hrs. The data set is classed as functional.
Data set [20] in a line: Cytotoxicity against HEK293 cells. In kind it is toxicity, cell-based. To be noted: human.
Data set [21] has as its system Trypanosoma brucei brucei. Nature of the data set: Disruption of nucleotide metabolism in bloodstream Trypanosoma brucei brucei 427 assessed as depletion of ATP at 1 uM incubated for 5 hrs. In kind it is functional, organism-based.
The subject of data set [22] is Trypanosoma brucei brucei. The data set is described as follows: Disruption of nucleotide metabolism in bloodstream Trypanosoma brucei brucei 427 assessed as depletion of deoxy-UTP at 1 uM incubated for 5 hrs. The data set is classed as functional, organism-based.
For data set [23], the system named is Trypanosoma brucei brucei. Nature of the data set: Disruption of nucleotide metabolism in bloodstream Trypanosoma brucei brucei 427 assessed as depletion of deoxy-CTP at 1 uM incubated for 5 hrs. The data set is classed as functional, organism-based.
The subject of data set [24] is Trypanosoma brucei brucei. Nature of the data set: Disruption of nucleotide metabolism in bloodstream Trypanosoma brucei brucei 427 assessed as fold increase in AMP at 1 uM incubated for 5 hrs. The data set is classed as functional.
The test system of data set [25] is Trypanosoma brucei brucei. The data set is described as follows: Disruption of nucleotide metabolism in bloodstream Trypanosoma brucei brucei 427 assessed as depletion of CTP at 1 uM incubated for 5 hrs. The data set is classed as functional, organism-based.
Data set [26] has as its system Trypanosoma brucei brucei. The data set is described as follows: Disruption of nucleotide metabolism in bloodstream Trypanosoma brucei brucei 427 assessed as depletion of deoxy-GTP at 1 uM incubated for 5 hrs. In kind it is functional, organism-based.
For data set [27], the system named is Trypanosoma brucei brucei. Nature of the data set: Disruption of nucleotide metabolism in bloodstream Trypanosoma brucei brucei 427 assessed as depletion of deoxy-ATP at 1 uM incubated for 5 hrs. In kind it is functional, organism-based.
Data set [28] concerns Trypanosoma brucei brucei. Nature of the data set: Disruption of nucleotide metabolism in bloodstream Trypanosoma brucei brucei 427 assessed as depletion of GTP at 1 uM incubated for 5 hrs. The data set is classed as functional, organism-based.
Data set [29] relates to Trypanosoma brucei brucei. The data set is described as follows: Disruption of nucleotide metabolism in bloodstream Trypanosoma brucei brucei 427 assessed as depletion of UTP at 1 uM incubated for 5 hrs. The data set is classed as functional, organism-based.
For data set [30], the system named is Trypanosoma brucei brucei. The data set is described as follows: Anti-trypanosomal activity against Trypanosoma brucei brucei incubated for 48 hrs by alamar blue assay. The data set is classed as functional, organism-based. For orientation: Resazurin is reduced to fluorescent resorufin, in cell work by metabolically active cells.
Data set [31] can be described thus: Selectivity ratio of IC50 for HEK293 cells to IC50 for Trypanosoma brucei brucei. In kind it is toxicity. To be noted: human, read-out: Ratio IC50.
Data set [32] has as its system Trypanosoma brucei brucei. Nature of the data set: Disruption of nucleotide metabolism in bloodstream Trypanosoma brucei brucei 427 assessed as accumulation of AMP at 1 uM incubated for 5 hrs. The data set is classed as functional, organism-based.
In data set [33] the test system is Trypanosoma brucei brucei. The data set is described as follows: Effect on carbohydrate metabolism in bloodstream Trypanosoma brucei brucei 427 at 1 uM incubated for 5 hrs by pathway enrichment analysis. In kind it is functional.
Data set [34] relates to Trypanosoma brucei brucei. Nature of the data set: Opposing effect on metabolism in bloodstream Trypanosoma brucei brucei 427 at 1 uM incubated for 5 hrs by LC-MS based principal component analysis. The data set is classed as functional, organism-based.
For data set [35], the system named is Trypanosoma brucei brucei. Nature of the data set: Anti-trypanosomal activity against Trypanosoma brucei brucei. In kind it is functional, organism-based.
Data set [36] relates to Trypanosoma brucei brucei. Nature of the data set: Effect on nucleotide metabolism in bloodstream Trypanosoma brucei brucei 427 at 1 uM incubated for 5 hrs by pathway enrichment analysis. In kind it is functional.
Data set [37] relates to Trypanosoma brucei brucei. The data set is described as follows: Disruption of nucleotide metabolism in bloodstream Trypanosoma brucei brucei 427 assessed as depletion of ATP at 1 uM incubated for 5 hrs relative to control. The data set is classed as functional.
Data set [38] can be described thus: Cytotoxicity against HEK293 cells assessed as inhibition of cell viability at 83 uM relative to control. The data set is classed as toxicity, cell-based. To be noted: human, read-out: INH.
Data set [39] concerns Trypanosoma brucei brucei. The data set is described as follows: Anti-trypanosomal activity against Trypanosoma brucei brucei at 42 uM relative to control. The data set is classed as functional.

As usually defined, the inhibition is the change of the read-out against control, counted positive when it falls. As usually defined, the IC50 is the concentration that gives 50% inhibition. High values mean weaker potency in that assay, low ones greater potency in that assay. With `Cc1ccccc1/N=C(\NCCN1CCOCC1)NC(=O)c1ccccc1`, the result in [1], in data set [2], in [3], in data set [4], in data set [5] and in [6] was inactive. Also, the result in [7], in data set [8], in [9], in [11], in data set [12] and in data set [13] was inactive. Also, the outcome in data set [14], in data set [15], in [16], in data set [17] and in [18] was inactive. In [10], this compound came in with an inhibition at 10 µM of 75%. The outcome in data set [19] was Active. Further, the IC50 in data set [20] was more than 83 µM.
With `Cc1ccc(/N=C(\NCCN2CCOCC2)NC(=O)c2ccccc2)c(Cl)c1`, the outcome in data set [21], in data set [1], in data set [22], in data set [4], in data set [23] and in [6] was Active. Moreover, the outcome in data set [8], in data set [25], in [26], in [9], in data set [27] and in data set [11] was Active. The outcome in data set [13], in data set [28], in data set [14], in data set [29], in data set [15] and in data set [16] was Active. Also, the outcome in data set [17] and in [18] was Active. Moreover, the “fold change (FC)” value in [24] was found to be 7. The compound further returned an inhibition at 10 µM in data set [10] of 54%. Also, the outcome in data set [19] was inactive.
Take `CCc1ccccc1/N=C(\NCCN1CCOCC1)NC(=O)c1ccccc1`: the IC50 in data set [30] is 2.6 µM. Moreover, the outcome in [1], in [2], in data set [3], in data set [4], in [5] and in data set [6] was inactive. The result in [7], in data set [8], in [9], in data set [11], in [12] and in data set [13] was inactive. The result in data set [14], in data set [15], in [16], in [17] and in data set [18] was inactive. Also, in data set [31], the selectivity ratio was not below 29. For the same compound, the result in data set [19] was Active.
For the compound `CCc1ccccc1/N=C(\NCCN1CCOCC1)NC(=O)c1ccc(C)cc1`, the outcome in data set [21], in data set [1], in data set [32], in [2], in data set [3] and in data set [4] was inactive. Also, the outcome in [5], in data set [6], in [7], in data set [8], in data set [9] and in data set [11] was inactive. Moreover, the result in [12], in data set [13], in data set [14], in data set [15], in data set [16] and in [17] was inactive. In addition, in data set [18], the result was inactive. Moreover, the outcome in data set [33], in [34], in data set [36] and in data set [19] was Active. The selectivity ratio in [31] is more than 19. Moreover, the figures for the IC50 in [35] and in data set [20] were 4.4 µM and more than 83 µM, respectively.
For the compound `Cc1cc(Br)ccc1/N=C(\NCCN1CCOCC1)NC(=O)c1ccccc1`, the outcome in [1], in data set [22], in data set [2], in data set [33], in [4] and in data set [23] was Active. In addition, the result in data set [5], in data set [6], in data set [7], in data set [8], in [25] and in [26] was Active. For the same compound, the result in data set [9], in [27], in [11], in data set [12], in data set [13] and in [28] was Active. Further, the outcome in [14], in data set [34], in data set [29], in data set [15], in data set [16] and in [17] was Active. The result in data set [18] and in [36] was Active. Moreover, in data set [37], the Activity was found to be 25%. For the same compound, the selectivity ratio in data set [31] was more than 33. Also, the IC50 is 2.5 µM in [35] and more than 83 µM in data set [20]. The outcome in data set [19] was inactive.
Take `CCc1ccccc1/N=C(\NCCN1CCOCC1)NC(=O)c1cccc(Cl)c1`: the cytotoxicity at 83 µM in data set [38] was 67%. This compound gave an inhibition at 10 µM in data set [10] of 87%. Moreover, at 42 µM the inhibition in [39] was 68%.
